Laboratory results as given in ChEMBL document CHEMBL4627285, “Multi-step parallel synthesis enabled optimization of benzofuran derivatives as pan-genotypic non-nucleoside inhibitors of HCV NS5B” (Bioorg Med Chem Lett, 2020).
Values after ≈ are worked out from the molar mass of the structure shown.

Columns and labels:
[1] = Solubility of compound in FASSIF at pH 6.5; assay type: physicochemical
[2] = Clearance in Wistar rat; assay type: ADME; details: in vivo
[3] = MRT in Wistar rat; assay type: ADME; details: in vivo
[4] = AUC in Wistar rat; assay type: ADME; details: in vivo
[5] = Volume of distribution in Wistar rat; assay type: ADME; details: in vivo

| Compound | solubility ([1]; FaSSIF, read-out: solubility) [µM] | clearance [2] [mL/min/kg] | MRT [3] [h] | AUC [4] [µM·h] | Vd [5] [L/kg] | solubility ([1]; simulated gi fluid) [µM] |
| --- | --- | --- | --- | --- | --- | --- |
| CNC(=O)c1c(-c2ccc(F)cc2)oc2cc(N(C)S(C)(=O)=O)c(-c3ccc4nc(C)n(Cc5ccc(F)cc5)c(=O)c4c3)cc12 | 70 (≈ 45 µg/mL) | 27.4 | 2.84 | 1.06 | 4.28 | – |
| CNC(=O)c1c(-c2ccc(F)cc2)oc2cc(N(C)S(C)(=O)=O)c(-c3ccc4c(n3)-c3cc5c(F)cccc5n3CO4)cc12 [MK-8876] | – | 7.03 | 18.1 | 3.92 | 5.79 | 42 (≈ 25.8 µg/mL) |
